Test results published in patent EP4796536A1, “CRYSTAL FORMS OF COMPOUND HAVING FUSED FIVE- AND SIX-MEMBERED RINGS, PREPARATION METHOD THEREFOR, AND USE THEREOF” (Hangzhou Polymed Biopharmaceuticals, Inc., priority 2023, dated 2025).

Columns and labels:
IRAK4 kinase = molecular target: T1, IRAK4 kinase (Homo sapiens, UniProt Q9NWZ3); assay: Inhibition of IRAK4 kinase activity, fluorescence microfluidic mobility assay; type: biochemical; settings: IRAK4 6 nM, ATP 10 µM, substrate peptide FAM-P8 3 µM
T1 construct: purchased Carna 09-145
T1 sequence (Q9NWZ3 1-460): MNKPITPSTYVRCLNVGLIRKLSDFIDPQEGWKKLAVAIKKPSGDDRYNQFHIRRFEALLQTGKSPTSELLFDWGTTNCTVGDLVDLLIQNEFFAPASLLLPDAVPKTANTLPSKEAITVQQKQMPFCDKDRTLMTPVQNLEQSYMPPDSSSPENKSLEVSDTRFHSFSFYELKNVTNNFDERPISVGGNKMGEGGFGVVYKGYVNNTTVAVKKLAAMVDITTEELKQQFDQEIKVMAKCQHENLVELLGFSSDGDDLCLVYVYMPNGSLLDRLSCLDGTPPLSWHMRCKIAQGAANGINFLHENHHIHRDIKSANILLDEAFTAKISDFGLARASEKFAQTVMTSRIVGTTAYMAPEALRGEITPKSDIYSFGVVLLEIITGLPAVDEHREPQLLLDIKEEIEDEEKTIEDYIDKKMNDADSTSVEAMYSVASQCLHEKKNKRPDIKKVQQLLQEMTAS
Protocol: Based on the experimental method of fluorescence microfluidic mobility assay, the IC50 value of competitive binding of IRAK4 kinase to ATP by the compound was determined. The initial detection concentration of the compound was 10 µM, which was 4-fold serially diluted to […] and assayed in duplicate. In this case, commercially available staurosporine was the standard control for the assay.
• 1) IRAK4 kinase was dissolved in kinase buffer (50 mM HEPES pH 7.5, 10 mM MgCl2, 2 mM DTT, and 0.01% Brij-35) at a final concentration of 6 nM. • 2) The substrate peptide FAM-P8 and ATP were dissolved in the above kinase buffer, and the final concentrations of the substrate peptide FAM-P8 and ATP for IRAK4 were 3 µM and 10 µM, respectively. • 3) Dilution of compound: the compound was first diluted to 50 µM, and then 4-fold serially diluted with DMSO. […] After incubation at 28°C for 1 hour, 25 µL of stop solution (100 mM HEPES pH 7.5, 50 mM EDTA, 0.2% Coating Reagent #3, and 0.015% Brij-35) was added to each well to terminate the reaction. • 5) Data reading: CaliperEZ Reader II instrument was used to read the conversion rate data. […]

[1] = molecular target: T2, IRAK4 protein in THP-1 cells (Homo sapiens, UniProt Q9NWZ3); assay: IRAK4 protein degradation in THP-1 cells by Western Blot; type: cell-based; settings: 24 hours after administration
T2 construct: endogenous in cells; host or cells: THP-1
T2 sequence (Q9NWZ3 1-460): T1 sequence (Q9NWZ3 1-460)
Protocol: 2.2.2.1 Based on the experimental method of immunoblot, i.e., Western Blot, THP-1 cell samples processed by gel electrophoresis were stained with specific antibodies, and the degrading activity of the compound on the IRAK4 protein in THP-1 cells was determined by analyzing the position and depth of staining. The detection concentrations of the compound were 0 µM, 0.3 µM, 1 µM, and 3 µM, and the compound was used to treat the cells for 8 hours, 16 hours, 24 hours, and 48 hours. In this case, glyceraldehyde-3-phosphate dehydrogenase (GAPDH) was the internal reference protein for the assay.
• Running buffer: 50 mL of MOPS SDS Running Buffer (20X) and 50 mL of 20× TBS Tween-20 buffer were diluted to 1L with deionized water as running buffer; • 5% skim milk (w/v): 5% skim milk was prepared by diluting 2.5 g of skim milk with 50 mL of 1× TBS Tween-20 buffer; • 5% BSA (w/v): 5% BSA was prepared by diluting 2.5 g of BSA with 50 mL of 1× TBS Tween-20 buffer; • Anti-IRAK4 antibody was diluted at 1:1000 with 5% BSA into a primary antibody working solution; • Goat Anti-Rabbit IgG H&L (HRP) was diluted at 1:2000 with 5% BSA into a secondary antibody working solution; • Goat Anti-Mouse IgG H&L (HRP) was diluted at 1:2000 with 5% BSA into a secondary antibody working solution. […]

In the case of `COc1cc2nn(C3CC4(CCN(C(=O)C5CCN(c6ccc7c(c6)C(=O)N(C6CCC(=O)NC6=O)C7=O)CC5)CC4)C3)cc2cc1NC(=O)c1cccc(C(F)(F)F)n1` (centres unmarked) [X], the IC50 (IRAK4 kinase) is reported as 26 nM and the DC50 [1] is reported as 4.02 nM.
